What all share (assay type): cell-based
Test [1] deals with Staphylococcus aureus ATCC 6538 resistant to neomycin. Description: MIC against resistant Staphylococcus aureus strains (Table III). Conditions: S. aureus ATCC 6538 resistant to neomycin. The text has this:
(§1) The new antibiotic substance is active also against microorganism strains which are resistant to other commonly used antibiotics.

The subject of test [2] is Staphylococcus aureus ATCC 6538 resistant to tetracycline. The description is as above. Conditions: ATCC6538.
Source text: as §1

Test [3] relates to Staphylococcus aureus ATCC 6538 resistant to erythromycin. In words: microbe, parasite or virus in culture. Conditions: ATCC6538.
Source text: as §1

The subject of test [4] is Staphylococcus aureus ATCC 6538 resistant to penicillin. In words: microbe, parasite or virus in culture. Conditions: ATCC6538.
Source text: as §1

The test system of test [5] is Staphylococcus aureus ATCC 6538 resistant to bacitracin. In words: microbe, parasite or virus in culture. To be noted: ATCC6538.
Source text: as §1

The test system of test [6] is Staphylococcus aureus ATCC 6538 resistant to cephaloridine. In words: microbe, parasite or virus in culture. Conditions: ATCC6538.
Source text: as §1

Test [7] has as its system Staphylococcus aureus ATCC 6538 resistant to kanamycin. In words: MIC against resistant Staphylococcus aureus strains (Table III). To be noted: ATCC6538.
Source text: as §1

For test [8], the system named is Staphylococcus aureus ATCC 6538 resistant to rifampicin. The description is as above. Conditions: ATCC6538.
Source text: as §1

For test [9], the system named is Staphylococcus aureus Tour resistant to streptomycin. The test is described as above. To be noted: S. aureus Tour resistant to streptomycin.
Source text: as §1

Test [10] concerns Staphylococcus aureus ATCC 6538 resistant to lincomycin. Description: microbe, parasite or virus in culture. To be noted: ATCC6538.
Source text: as §1

The subject of test [11] is Staphylococcus aureus ATCC 6538 resistant to chloramphenicol. In words: microbe, parasite or virus in culture. Conditions: ATCC6538.
Source text: as §1

Bridge positions count the residues as written; N and C are the ends. Square brackets hold non-standard residues; d marks the D form. Peptide text beside a SMILES is read from it. * marks the point of attachment. Ileψ(thiazoline)Cys = CC[C@H](C)[C@H](N)C1=N[C@H](C(=O)*)CS1; dOrn = NCCC[C@@H](N)C(=O)O

In turn, neomycin gave an MIC in [1] of more than 100 µg/mL. Turning to `CN(C)C1C(=O)C(C(N)=O)=C(O)C2(O)C(=O)C3=C(O)c4c(O)cccc4C(C)(O)C3CC12` (centres unmarked) [tetracycline], the MIC in [2] is more than 100 µg/mL. In turn, `CC[C@H]1OC(=O)[C@H](C)[C@@H](O[C@H]2C[C@@](C)(OC)[C@@H](O)[C@H](C)O2)[C@H](C)[C@@H](O[C@@H]2O[C@H](C)C[C@H](N(C)C)[C@H]2O)[C@](C)(O)C[C@@H](C)C(=O)[C@H](C)[C@@H](O)[C@]1(C)O` [erythromycin] displayed an MIC in test [3] of more than 100 µg/mL. In [4], `CC1(C)S[C@@H]2[C@H](NC(=O)Cc3ccccc3)C(=O)N2[C@H]1C(=O)O` [penicillin] displayed an MIC of more than 100 µg/mL. Consider `CC[C@H](C)[C@H](N)C1=N[C@H](C(=O)N[C@@H](CC(C)C)C(=O)N[C@H](CCC(=O)O)C(=O)N[C@H](C(=O)N[C@H]2CCCCNC(=O)[C@H](CC(N)=O)NC(=O)[C@@H](CC(=O)O)NC(=O)[C@H](Cc3cnc[nH]3)NC(=O)[C@@H](Cc3ccccc3)NC(=O)[C@H]([C@@H](C)CC)NC(=O)[C@@H](CCCN)NC2=O)[C@@H](C)CC)CS1` [bacitracin] ({Ileψ(thiazoline)Cys}-L[dE]IK[dOrn]I[dF]H[dD]N; lactam 4-C), for which the MIC in test [5] was more than 100 µg/mL.

In test [6], `O=C(Cc1cccs1)N[C@@H]1C(=O)N2C(C(=O)[O-])=C(C[n+]3ccccc3)CS[C@H]12` [cephaloridine] showed an MIC of more than 100 µg/mL. Regarding `NC[C@H]1O[C@H](O[C@H]2[C@H](O)[C@@H](O[C@H]3O[C@H](CO)[C@@H](O)[C@H](N)[C@H]3O)[C@H](N)C[C@@H]2N)[C@H](O)[C@@H](O)[C@@H]1O` [kanamycin], in test [7], the MIC was more than 100 µg/mL.

In the case of `CO[C@H]1/C=C/O[C@@]2(C)Oc3c(C)c(O)c4c(O)c(c(/C=N/N5CCN(C)CC5)c(O)c4c3C2=O)NC(=O)/C(C)=C\C=C\[C@H](C)[C@H](O)[C@@H](C)[C@@H](O)[C@@H](C)[C@H](OC(C)=O)[C@@H]1C` [rifampicin], the MIC in [8] is more than 100 µg/mL.

`[H]/N=C(/N)N[C@H]1[C@H](O)[C@@H](O)[C@H](O[C@@H]2O[C@@H](C)[C@](O)(C=O)[C@H]2O[C@@H]2O[C@@H](CO)[C@H](O)[C@@H](O)[C@@H]2NC)[C@@H](N/C(N)=N\[H])[C@@H]1O` [streptomycin] had an MIC in [9] of more than 100 µg/mL.

Consider `CCC[C@@H]1C[C@@H](C(=O)N[C@@H]([C@H]2O[C@H](SC)[C@H](O)[C@@H](O)[C@H]2O)[C@@H](C)O)N(C)C1` [lincomycin], for which the MIC in test [10] was more than 100 µg/mL. For `O=C(N[C@H](CO)[C@H](O)c1ccc([N+](=O)[O-])cc1)C(Cl)Cl` [chloramphenicol], in [11], the MIC was more than 100 µg/mL.

(Values after patent publication US4280001A, “Biologically pure culture” (priority 1976, dated 1981).)
